Source: patent publication US5462927A, “Peptides aiding nerve regeneration” (The Administrators of the Tulane Educational Fund, priority 1992, dated 1995)
Ends that are not written are not given here.

Test system: crushed sciatic nerve
Test: Sensorimotor function test (sciatic nerve regeneration assay, foot-flick response to thermal pain)
Format: in vivo, rat
Settings: s.c. every 24 hr for approximately 20-25 days; head prints only 'μG/24 HRS'; vs 0.9% NaCl control
Description: Female, Sprague-Dawley rats (Charles River Breeding Labs) were used at an age of 7-8 weeks (120-140 g). Under ether anesthesia, the right sciatic nerve was carefully exposed and crushed with constant pressure, hemostatic forceps for 30 sec prior to closure and suturing of the incision. After surgery, the animals were randomly assigned to treatment groups of 10. The test peptides were administered s.c. in 0.9% NaCl in a vol of 0.1 ml. NaCl (0.9%) served as the control. Injections were started immediately after surgery and given every 24 hr thereafter for approximately 20-25 days. The criterion of sciatic nerve regeneration was based on the recovery of the foot-flick response to thermal pain. Beginning 48 hr after surgery, the rats were tested five days a week for the ability to withdraw, from a heat source, the paw innervated by the crushed nerve. All sensorimotor testing was performed between 1:00 and 3:00 p.m. Specifically, the rat was immobilized by wrapping in a towel, and the sole of the lesioned limb was placed over the aperture of a modified d'Amour apparatus. The time required to withdraw the foot was recorded to the nearest 0.1 of sec using a digital stopwatch. If no response occurred by 5 sec, the test was terminated to avoid tissue damage. The observe measuring the foot-flick response was blind to the treatment group being tested. All animals were acclimatized to the testing procedure prior to surgery. Baseline values were obtained by determining the response time for the unlesioned limb.

Compound: CCCC[C@H](N)C(=O)N[C@@H](CCC(N)=O)C(=O)N[C@@H](Cc1c[nH]cn1)C(=O)N[C@@H](Cc1ccccc1)C(=O)N[C@@H](CCCNC(=N)N)C(=O)N[C@@H](Cc1c[nH]c2ccccc12)C(=O)NCC(N)=O [BIM-22010, NLeu--Gln--His--Phe--Arg--Trp--Gly--NH2]
- % Reduction of Recovery Time: 13%

Compound: AQYFRWG-NH2 [BIM-22016, L--Ala--Gln--Tyr--Phe--Arg--Trp--Gly--NH2]
- % Reduction of Recovery Time: 13%
